Values of other authors as cited in PMC10356740 (Journal of sleep research, 2023).

Assays:
OX1R = settings: OX2R over OX1R; ref Kimura et al., 2019; cited from earlier work
[1] = Phase 2; led Takeda to suspend dosing; cited from earlier work
orexin/ataxin-3 mice = settings: chronic dosing for up to 14 days; ref Ishikawa et al., 2020; cited from earlier work
OX2R = settings: read-out: EC50 on OX2R; ref Kimura et al., 2019; cited from earlier work
wild-type mice = settings: oral, 5h into the light period, normal sleep phase; ref Ishikawa et al., 2019; cited from earlier work
Hcrt-neuron ablated mice = settings: ref Kimura et al., 2019; cited from earlier work

CC(C)(O)C(=O)N1CC[C@H](NS(C)(=O)=O)[C@@H]1Cc1cccc(-c2cc(F)cc(F)c2)c1F.CC(C)(O)C(=O)N1CC[C@H](NS(C)(=O)=O)[C@@H]1Cc1cccc(-c2cc(F)cc(F)c2)c1F.O.O.O [TAK-994]
selectivity against OX1R (OX1R): > 700 fold
Safety [1]: a safety signal emerged
Sleep rebound (orexin/ataxin-3 mice): without causing a sleep rebound
Wakefulness after chronic dosing (orexin/ataxin-3 mice): wake-promoting effects
EC50 (OX2R): 19 nM
Wakefulness (wild-type mice): promoted wakefulness
Cataplectic episodes (Hcrt-neuron ablated mice): suppressing cataplectic episodes
Time spent in wake (Hcrt-neuron ablated mice): increased time spent in wake
Wake maintenance (Hcrt-neuron ablated mice): improved wake maintenance
